Reference: patent publication US6916915B1, “Stressor regulated genes” (Duke University, priority 1998, dated 2005)

System: C. elegans
Experiment: mRNA differential display of control and cadmium-treated nematodes
Format: in vivo, Caenorhabditis elegans
Conditions: cadmium-treated C. elegans cDNA compared to the control
Procedure: Growth and isolation of C. elegans—The N2 strain of C. elegans was grown in liquid S medium (0.1M NaCl, 50 mM potassium phosphate, pH 6.0, 5 μg/ml cholesterol, 10 mM potassium citrate, 3 mM CaCl2, 3 mM MgCl2, 50 μM EDTA, 25 μM FeSO4, 10 μM MnCl2, 10 μM ZnSO4 and 1 μM CuSO4) using E. coli OP50 as a food source (Brenner, S. (1974) Genetics 77, 71-94). In experiments where nematodes were exposed to cadmium, the medium was supplemented with 100 μM CdCl2 (Freedman, J. H. et al. (1993) J. Biol. Chem. 268, 2554-2564). C. elegans were grown in the presence of metal for 8 h or 24 h at ˜20° C. Nematodes were then collected following centrifugation at 800×g for 5 min. Pellets were suspended in 5 mM NaCl containing 35% sucrose (final concentration) and viable nematodes were collected from the top of the solution following centrifugation at 1000×g for 5 min at 4° C. Nematodes were then washed three times by suspension in M9 buffer (22 mM KH2PO4, 42 mM Na2HPO4, 85 mM NaCl, 1 mM MgSO4) followed by sedimentation at 800×g. Washed nematode pellets were finally suspended in a small volume of M9 buffer, rapidly frozen in liquid nitrogen and stored at −80° C.
RNA isolation—Total RNA was isolated from mix-stage populations of C. elegans exposed to 100 μM CdCl2 for 8 h and 24 h and control, non-exposed nematodes. […]

Structure (SMILES): [Cl][Cd][Cl] [cadmium, CdCl2]
- band intensity of VL9 cDNA in differential display: decreased band intensity
